Like-named read-outs stand apart in the source and are kept apart here.
What was measured:
cyclooxygenase-2 (COX-2) = target: T1, cyclooxygenase-2 (COX-2) (Ovis aries, UniProt P79208); experiment: inhibitory activity on cyclooxygenase-2 (Experimental Example 1-1, sheep placenta solubilized fraction); format: biochemical; details: for IC50: sheep placenta COX-2, pH 8, 24° C.; for inhibition at 100 µM: sheep placenta COX-2, inhibition at 100 μM test compound
T1 sequence (P79208 17-603): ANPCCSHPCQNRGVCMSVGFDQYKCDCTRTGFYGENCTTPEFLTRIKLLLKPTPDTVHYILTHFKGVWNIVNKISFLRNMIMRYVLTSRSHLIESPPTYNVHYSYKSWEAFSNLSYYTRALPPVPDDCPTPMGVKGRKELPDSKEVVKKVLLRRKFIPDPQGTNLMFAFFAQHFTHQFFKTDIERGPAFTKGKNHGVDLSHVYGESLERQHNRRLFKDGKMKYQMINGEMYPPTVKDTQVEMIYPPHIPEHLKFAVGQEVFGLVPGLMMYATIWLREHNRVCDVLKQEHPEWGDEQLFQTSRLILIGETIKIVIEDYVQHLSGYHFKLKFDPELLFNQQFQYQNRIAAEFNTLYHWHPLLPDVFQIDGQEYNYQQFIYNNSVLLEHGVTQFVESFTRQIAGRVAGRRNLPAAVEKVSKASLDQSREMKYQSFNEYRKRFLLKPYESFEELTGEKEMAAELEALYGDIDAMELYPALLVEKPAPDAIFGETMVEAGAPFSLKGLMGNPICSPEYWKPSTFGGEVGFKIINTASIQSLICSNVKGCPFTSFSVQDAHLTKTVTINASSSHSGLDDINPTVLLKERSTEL
Protocol: (§1) That is, a test sample (20 μl), an enzyme solution (20 μl) and distilled water (10 μl) were added to 100 mM Tris-HCl buffer (pH 8, 140 μl) containing hematin (2 μM) and tryptophan (5 mM), and the mixture was thoroughly stirred, which was followed by preincubation at 24° C. for 5 minutes. Then, a ^1 4 C arachidonic acid solution (10 μl) was added and the mixture was reacted at 24° C., whereafter a solution (40 μl) of ethyl ether/methanol/1 M citric acid (30/4/1) ice-cooled to -20° C. was added to stop the reaction.

cyclooxygenase-1 (COX-1) [1] = target: T2, cyclooxygenase-1 (COX-1) (Ovis aries, UniProt P05979); experiment: inhibitory activity on cyclooxygenase-1 (Experimental Example 1-1, sheep seminal vesicle microsome fraction); format: biochemical; details: for IC50: sheep seminal vesicle COX-1, pH 8, 24° C.; for inhibition at 100 µM: sheep seminal vesicle COX-1, inhibition at 100 μM test compound
T2 sequence (P05979 25-600): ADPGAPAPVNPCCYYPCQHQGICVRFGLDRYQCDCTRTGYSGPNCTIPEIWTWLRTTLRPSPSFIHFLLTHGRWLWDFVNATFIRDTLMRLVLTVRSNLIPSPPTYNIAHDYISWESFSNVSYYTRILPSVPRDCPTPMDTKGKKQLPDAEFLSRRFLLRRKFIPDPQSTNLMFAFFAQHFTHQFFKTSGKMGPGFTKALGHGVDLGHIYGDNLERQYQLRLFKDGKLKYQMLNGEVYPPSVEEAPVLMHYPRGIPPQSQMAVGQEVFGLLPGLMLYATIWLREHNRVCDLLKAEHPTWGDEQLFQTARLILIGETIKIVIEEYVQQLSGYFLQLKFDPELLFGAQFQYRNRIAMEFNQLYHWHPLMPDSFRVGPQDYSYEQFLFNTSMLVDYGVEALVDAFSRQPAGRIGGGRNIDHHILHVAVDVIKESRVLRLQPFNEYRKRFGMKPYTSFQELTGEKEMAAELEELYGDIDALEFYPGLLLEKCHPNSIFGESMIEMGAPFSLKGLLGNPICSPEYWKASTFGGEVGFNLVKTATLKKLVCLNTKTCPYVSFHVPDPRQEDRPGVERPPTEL
Protocol: as §1

[2] = target: T3, human cyclooxygenase-2 (COX-2) (Homo sapiens, UniProt P35354); experiment: inhibitory activity on cyclooxygenase-2 (Experimental Example 1-2, human COX-2 expressed by yeast); format: biochemical
T3 construct: made in house
T3 sequence (P35354 18-604): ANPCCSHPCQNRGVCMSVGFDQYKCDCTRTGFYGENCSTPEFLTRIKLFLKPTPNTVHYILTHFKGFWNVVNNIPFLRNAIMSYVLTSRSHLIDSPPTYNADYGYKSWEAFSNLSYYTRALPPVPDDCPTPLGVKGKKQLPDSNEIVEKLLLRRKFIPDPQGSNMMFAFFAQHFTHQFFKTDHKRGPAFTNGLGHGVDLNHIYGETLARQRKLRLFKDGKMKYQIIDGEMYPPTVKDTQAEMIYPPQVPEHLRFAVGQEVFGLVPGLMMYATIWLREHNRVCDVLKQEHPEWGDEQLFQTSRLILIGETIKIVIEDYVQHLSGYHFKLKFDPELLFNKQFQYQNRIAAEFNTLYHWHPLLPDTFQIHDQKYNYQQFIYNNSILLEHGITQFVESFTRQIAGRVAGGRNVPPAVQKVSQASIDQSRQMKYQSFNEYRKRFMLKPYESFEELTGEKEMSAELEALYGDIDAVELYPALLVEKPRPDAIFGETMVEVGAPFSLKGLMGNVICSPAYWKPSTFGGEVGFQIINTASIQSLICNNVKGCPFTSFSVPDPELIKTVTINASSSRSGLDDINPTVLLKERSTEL
Protocol: as §1

cyclooxygenase-1 (COX-1) [3] = target: T4, cyclooxygenase-1 (COX-1) (Homo sapiens, UniProt P23219); experiment: inhibitory activity on cyclooxygenase-1 (Experimental Example 1-2, enzyme prepared from human platelets); format: biochemical; details: COX-1 prepared from human platelets
T4 construct: an enzyme prepared from human platelets; from tissue; host or cells: human platelets
Protocol: as §1

[4] = system: carrageenin-induced paw edema; experiment: effects on carrageenin-induced paw edema in rats (Experimental Example 2); format: in vivo, male Donryu rats; details: Rattus norvegicus, po, 3 h
Protocol: Carrageenin (1%, 0.05 ml) dissolved in physiological saline was subcutaneously injected to the left hind paw of male Donryu rats to induce paw edema. The degree of paw edema was evaluated by measuring the volume of the paw 3 hours after carrageenin administration. […] Inhibitory activity was expressed by the dose (ED30) of the test compound necessary for inhibiting by 30% relative to the control group.

[5] = effects on gastric ulcer formation in rats (Experimental Example 3); set-up: species or system male Donryu rats; details: rat, in vivo
Protocol: A test compound (100 mg/kg) was orally administered (10 ml/kg) to male Donryu rats. Six hours later, the stomach of the rats was exposed and fixed with 0.1% formalin. The stomach was opened and the degree of ulcer formation was evaluated.

T4 sequence (P23219 24-599): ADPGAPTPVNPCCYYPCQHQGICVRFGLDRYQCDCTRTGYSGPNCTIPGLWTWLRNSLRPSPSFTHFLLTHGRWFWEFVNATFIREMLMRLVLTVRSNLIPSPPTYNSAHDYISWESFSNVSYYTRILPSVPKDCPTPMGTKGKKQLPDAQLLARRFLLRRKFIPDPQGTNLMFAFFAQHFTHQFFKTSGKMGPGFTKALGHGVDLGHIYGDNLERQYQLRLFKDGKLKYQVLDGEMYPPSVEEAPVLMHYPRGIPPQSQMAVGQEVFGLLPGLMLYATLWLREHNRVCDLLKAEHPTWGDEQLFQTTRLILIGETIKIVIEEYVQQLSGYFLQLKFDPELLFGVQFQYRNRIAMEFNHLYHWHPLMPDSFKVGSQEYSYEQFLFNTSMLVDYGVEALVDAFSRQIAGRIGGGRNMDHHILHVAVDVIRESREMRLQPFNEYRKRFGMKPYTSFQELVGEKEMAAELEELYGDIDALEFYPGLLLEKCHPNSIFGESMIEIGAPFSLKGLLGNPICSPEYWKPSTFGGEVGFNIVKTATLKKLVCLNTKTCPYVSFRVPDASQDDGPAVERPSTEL

| Structure (SMILES) | IC50 (cyclooxygenase-2 (COX-2)) | ED30 [4] | inhibition at 100 µM (cyclooxygenase-1 (COX-1) [1]) | further results |
| --- | --- | --- | --- | --- |
| Cc1nc(-c2ccc(C)s2)c(-c2ccc(S(C)(=O)=O)cc2)o1 [2(A), 5-(4-methylsulfonylphenyl)-2-methyl-4-(5-methyl-2-thienyl)oxazole] | 0.4 µM | 10.8 mg/kg | – | IC50 (cyclooxygenase-1 (COX-1) [1]): 50 µM; IC50 [2]: 40 nM; IC50 (cyclooxygenase-1 (COX-1) [3]): 47.5 µM; TD50 at 6 h ([5]; po): > 100 mg/kg |
| Cc1nc(-c2ccc(S(C)(=O)=O)cc2)c(-c2ccc(C)s2)o1 [2(B), 4-(4-methylsulfonylphenyl)-2-methyl-5-(5-methyl-2-thienyl)oxazole] | 80 µM | – | 10% | – |
| Cc1nc(-c2ccc(Cl)s2)c(-c2ccc(S(C)(=O)=O)cc2)o1 [10(A), 4-(5-chloro-2-thienyl)-2-methyl-5-(4-methylsulfonylphenyl)oxazole] | 0.2 µM | 5.4 mg/kg | 13% | IC50 [2]: 30 nM; IC50 (cyclooxygenase-1 (COX-1) [3]): 12.5 µM; TD50 at 6 h ([5]; po): > 100 mg/kg |
| Cc1nc(-c2ccc(S(C)(=O)=O)cc2)c(-c2ccc(Cl)s2)o1 [10(B), 5-(5-chloro-2-thienyl)-2-methyl-4-(4-methylsulfonylphenyl)oxazole] | 30 µM | – | 57% | – |
| Cc1nc(-c2cccs2)c(-c2ccc(S(C)(=O)=O)cc2)o1 [11(A), 5-(4-methylsulfonylphenyl)-2-methyl-4-(2-thienyl)oxazole] | 50 µM | 9.5 mg/kg | 14% | – |
| Cc1nc(-c2ccc(S(C)(=O)=O)cc2)c(-c2cccs2)o1 [11(B), 4-(4-methylsulfonylphenyl)-2-methyl-5-(2-thienyl)oxazole] | – | – | 6% | inhibition at 100 µM (cyclooxygenase-2 (COX-2)): 2% |
| Cc1nc(C2CCCCC2)c(-c2ccc(S(C)(=O)=O)cc2)o1 [Example 1, 4-Cyclohexyl-2-methyl-5-(4-methylsulfonylphenyl)oxazole] | – | 5.4 mg/kg | 11% | TD50 at 6 h ([5]; po): > 100 mg/kg |
| CCc1nc(C2CCCCC2)c(-c2ccc(S(C)(=O)=O)cc2)o1 [Example 3, 4-Cyclohexyl-2-ethyl-5-(4-methylsulfonylphenyl)oxazole] | < 1 µM | – | 18% | – |
| Cc1nc(C2CCC(C)CC2)c(-c2ccc(S(C)(=O)=O)cc2)o1 (centres unmarked) [Example 4, 5-(4-methylsulfonylphenyl)-2-methyl-4-(4-methylcyclohexyl)oxazole] | 4 µM | – | 26% | IC50 (cyclooxygenase-1 (COX-1) [3]): > 100 µM |
| CC1=CCC(c2nc(C)oc2-c2ccc(S(C)(=O)=O)cc2)CC1 (centres unmarked) [Example 5] | 10 µM | – | 5% | – |
| Cc1nc(C2CCCC2)c(-c2ccc(S(C)(=O)=O)cc2)o1 [Example 6, 4-cyclopentyl-2-methyl-5-(4-methylsulfonylphenyl)oxazole] | – | – | – | inhibition at 100 µM (cyclooxygenase-2 (COX-2)): 18%; IC50 (cyclooxygenase-1 (COX-1) [1]): 50 µM |
| Cc1nc(C2CCCCCC2)c(-c2ccc(S(C)(=O)=O)cc2)o1 [Example 7, 4-cycloheptyl-2-methyl-5-(4-methylsulfonylphenyl)oxazole] | – | – | – | IC50 (cyclooxygenase-1 (COX-1) [1]): 2 µM |
| Cc1nc(-c2ccco2)c(-c2ccc(S(C)(=O)=O)cc2)o1 [Example 8, 4-(2-furyl)-2-methyl-5-(4-methylsulfonylphenyl)oxazole] | – | – | 7% | inhibition at 100 µM (cyclooxygenase-2 (COX-2)): 7% |
| Cc1nc(-c2ccsc2)c(-c2ccc(S(C)(=O)=O)cc2)o1 [Example 9, 5-(4-methylsulfonylphenyl)-2-methyl-4-(3-thienyl)oxazole] | – | – | 2% | inhibition at 100 µM (cyclooxygenase-2 (COX-2)): 35% |
| CS(=O)(=O)c1ccc(-c2oc(-c3ccccc3)nc2C2CCCCC2)cc1 [Example 12, 2-phenyl-4-cyclohexyl-5-(4-methylsulfonylphenyl)oxazole, reference compound] | – | – | – | inhibition at 100 µM (cyclooxygenase-2 (COX-2)): 16%; IC50 (cyclooxygenase-1 (COX-1) [1]): > 100 µM |
| Cc1nc(-c2ccc(Cl)s2)c(-c2ccc(S(N)(=O)=O)cc2)o1 [Example 13, 5-(4-Aminosulfonylphenyl)-4-(5-chloro-2-thienyl)-2-methyloxazole] | – | – | – | IC50 [2]: 20 nM; IC50 (cyclooxygenase-1 (COX-1) [3]): 0.6 µM |
| Cc1nc(C2CCCCC2)c(-c2ccc(S(N)(=O)=O)cc2)o1 [Example 14, 5-(4-Aminosulfonylphenyl)-4-cyclohexyl-2-methyloxazole] | 1.5 µM | 4.5 mg/kg | – | IC50 (cyclooxygenase-1 (COX-1) [1]): > 100 µM; IC50 [2]: 70 nM; TD50 at 6 h ([5]; po): > 100 mg/kg |
| CNS(=O)(=O)c1ccc(-c2oc(C)nc2C2CCCCC2)cc1 [Example 15, 4-Cyclohexyl-2-methyl-5-(4-methylaminosulfonylphenyl)oxazole] | – | – | – | IC50 [2]: 4000 nM |
| COc1ccc2c(c1)c(CC(=O)O)c(C)n2C(=O)c1ccc(Cl)cc1 [indomethacin, reference compound] | – | 2.9 mg/kg | – | TD50 at 6 h ([5]; oral, stomach examined six hours later, read-out: gastric ulcer formation in rats): 10 mg/kg |
